# From PubChem BioAssay AID466 (The Scripps Research Institute Molecular Screening Center, 2006)
# Activity calls are given as the source filed them. The rule behind the calls is not given here.
# Molecular target: Sphingosine 1-phosphate receptor 1 (Homo sapiens) (UniProt P21453)
# Test: potentiators of S1P1 agonist response, dose response, cell-based, potentiator mode, 60K MLSMR set (AID 466)
# Details: S1P1 cell assay, potentiation of agonist response
# Sphingosine 1-phosphate receptor 1 (Homo sapiens), sequence (P21453 whole entry, looked up): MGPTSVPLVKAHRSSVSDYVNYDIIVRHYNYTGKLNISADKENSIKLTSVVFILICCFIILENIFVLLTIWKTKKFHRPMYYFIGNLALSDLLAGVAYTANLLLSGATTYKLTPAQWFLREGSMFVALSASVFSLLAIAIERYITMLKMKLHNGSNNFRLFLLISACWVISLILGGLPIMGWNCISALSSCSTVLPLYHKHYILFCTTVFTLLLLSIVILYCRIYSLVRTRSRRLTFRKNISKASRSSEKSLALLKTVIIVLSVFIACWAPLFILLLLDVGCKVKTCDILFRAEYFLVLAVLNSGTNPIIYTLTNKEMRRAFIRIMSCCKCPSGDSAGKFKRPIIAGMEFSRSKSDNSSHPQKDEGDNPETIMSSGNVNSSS
row,SMILES,EC50
1,COc1ccc(/C(O)=C2/C(=O)C(=O)N(CC3CCCO3)C2c2cccc(OC)c2)cc1 (stereo not given),> 95 µM (inactive)
2,C/C(N)=C(/C#N)C(=O)CSc1nc2cc(Cl)ccc2s1,inactive
3,Cc1cc(N2CCOCC2)nc(NCc2ccccc2)n1,inactive
4,c1ccc2c(c1)CCN(c1ncnc3c1[nH]c1ccccc13)C2,1.18 µM
5,CC(C)c1ccc2oc(-c3cc(N)ccc3O)nc2c1,9.39 µM
6,CCCCc1ccc(C2C(C#N)=C(N)SC(N)=C2C#N)s1,inactive
7,FC(F)(F)c1ccc(N2CCN(c3cc(-c4ccccc4)nc4ncnn34)CC2)nc1,inactive
8,CCOc1ccc(C(C)=O)cc1N1C(=O)C2C3C=CC(O3)C2C1=O (stereo not given),inactive
9,COC(=O)CC1SC(=O)NC1=Nc1ccccc1 (stereo not given),> 95 µM (inactive)
10,CCOC(=O)C1CCN(c2ncnc3c2oc2ccccc23)CC1,inactive
11,Cc1[nH]nc2c1C1(C(=O)N(Cc3ccc(Cl)cc3)c3ccccc31)C(C#N)=C(N)O2 (stereo not given),inactive
12,C/C(N)=C(/C#N)C(=O)CSc1nnc(SCc2ccc(Cl)cc2)s1,9.63 µM
13,Cc1ccc2[nH]c3c(N4CCCCCC4)ncnc3c2c1,4.14 µM
14,CC1(C)CC(=O)C(C=Nc2ccc3[nH]ncc3c2)=C(O)C1,6.01 µM
15,Cc1nn(Cc2ccc(Cl)c(Cl)c2)c(C)c1NC(=O)c1cc(-c2ccco2)on1,5.57 µM
16,Cn1nc(CC(=O)Nc2ccc3c(c2)OCCO3)c2ccccc2c1=O,5.94 µM
17,Cc1nn(Cc2ccc(Cl)c(Cl)c2)c(C)c1NC(=O)c1cc(C2CC2)on1,inactive
18,COc1ccc(N2C(=O)CC(Sc3ncn[nH]3)C2=O)c(OC)c1 (stereo not given),inactive

row,SMILES,EC50
1,CCC(=NCc1ccc2c(c1)OCO2)c1c(O)n(C2CCCCC2)c(=O)[nH]c1=O,8.66 µM
2,CC(C)c1ccc(OCc2nc(-c3ccccn3)no2)c(Br)c1,4.43 µM
3,O=C1C2C3C=CC(CO)(O3)C2C(=O)N1c1ccccc1-c1ccccc1 (stereo not given),6.82 µM
4,CC(=O)Oc1ccc(N2C(=O)C3C(C2=O)C2(C)C=CC3(C)O2)cc1 (stereo not given),inactive
5,NC(=O)c1ccc(OCC(F)(F)C(F)(F)C(F)(F)C(F)(F)C(F)(F)C(F)F)cc1,7.96 µM
6,CCC(=NCCOc1ccc(Cl)cc1)c1c(O)n(C)c(=O)n(C)c1=O,5.34 µM
7,CC(=O)c1ccc(NC(=O)N2CCN(c3cccc(Cl)c3)CC2)cc1,9.84 µM
8,COc1ccc(/C=N/O)cc1COc1ccc(NC(C)=O)cc1,> 95 µM (inactive)
9,Cc1ccc(NC(=O)c2cc(-c3ccco3)on2)cc1C,5.02 µM
10,CCC(=NC(C)c1ccccc1)c1c(O)n(C)c(=O)n(C)c1=O (stereo not given),inactive
11,CNc1oc(-c2ccc(OCc3ccccc3)cc2)nc1C#N,3.24 µM
12,COc1ccc(N=c2scc(-c3ccc(S(=O)(=O)N4CCOCC4)cc3)n2CCCO)cc1,inactive
13,O=C(C1CCN(S(=O)(=O)c2cccc3cccnc23)CC1)N1CCN(c2ccc(Cl)cc2)CC1,inactive
14,CCOC(=O)c1cccc2c1-c1ccccc1/C2=N/O,inactive
15,CC(C)Cn1c(N)c(C(=O)CSc2ccc3c(c2)OCCO3)c(=O)n(C)c1=O,inactive
16,CC1=C(C(=O)OCc2ccc3c(c2)OCO3)C(c2ccccc2)NC(=O)N1 (stereo not given),3.42 µM
17,CC1=C(C(=O)OCc2ccc3c(c2)OCO3)C(c2ccc(F)cc2)NC(=O)N1 (stereo not given),0.631 µM
